In data set [1] the test system is Vesicular stomatitis Indiana virus. Kind of data set: Antiviral activity against Vesicular stomatitis Indiana virus infected in golden hamster CER cells assessed as reduction in virus plaque formation after 36 to 48 hrs. It counts as functional.
Data set [2] can be described thus: Cytotoxicity against golden hamster CER cells after 2 days by neutral red uptake assay. The data set is classed as cell-based, Mesocricetus auratus. To be noted: read-out: TC50.
Data set [3] can be described thus: Cytotoxicity against human HeLa cells assessed as maximum non-toxic drug level after 2 days by neutral red uptake assay. The data set is classed as cell-based. The settings on record: read-out: MNCC.
The test system of data set [4] is rhinovirus A1B. The data set can be described thus: Antiviral activity against HRV1B infected in human HeLa cells assessed as reduction in virus-induced cytopathic effect at 30 ug/ml. Also noted: scale not given: the % may be the effect or the level left. The data set is classed as functional, Human rhinovirus 1B.
The subject of data set [5] is rhinovirus A1B. The data set can be described thus: Antiviral activity against HRV1B infected in human HeLa cells assessed as reduction in virus-induced cytopathic effect at 20 ug/ml. Further details: scale not given: the % may be the effect or the level left. The data set is classed as functional, Human rhinovirus 1B. In general terms: Damage to the host cells serves as the signal in cytopathic effect assays.

In brackets after ≈: the same amount, converted by molar mass.

As to `C[C@H]1[C@H](C)CC[C@]2(C(=O)O)CC[C@]3(C(=O)O[C@@H]4O[C@H](CO)[C@@H](O)[C@H](O)[C@H]4O)C(=CC[C@@H]4[C@@]5(C)CC[C@H](O[C@@H]6O[C@H](CO)[C@@H](O)[C@H](O)[C@H]6O)C(C)(C)[C@@H]5CC[C@]43C)[C@H]12`, the MIC50 in data set [1] is 87 µM (≈ 70.6 µg/mL). For the same compound, the CC50 at 48 h in data set [2] was determined as 150 µg/mL (≈ 185 µM).
The corresponding values for `C[C@H]1[C@H](C)CC[C@]2(C(=O)O)CC[C@]3(C(=O)O)C(=CC[C@@H]4[C@@]5(C)CC[C@H](O[C@@H]6O[C@H](C)[C@H](O)[C@H](O[C@@H]7O[C@H](CO)[C@@H](O)[C@H](O)[C@H]7O)[C@H]6O)C(C)(C)[C@@H]5CC[C@]43C)[C@H]12` are 25 µM (≈ 19.9 µg/mL) and 100 µg/mL (≈ 126 µM).
The corresponding values for `C[C@H]1[C@H](C)CC[C@]2(C(=O)O[C@@H]3O[C@H](CO)[C@@H](O)[C@H](O)[C@H]3O)CC[C@]3(C(=O)O)C(=CC[C@@H]4[C@@]5(C)CC[C@H](O[C@@H]6O[C@H](C)[C@H](O)[C@H](O[C@@H]7O[C@H](CO)[C@@H](O)[C@H](O)[C@H]7O)[C@H]6O)C(C)(C)[C@@H]5CC[C@]43C)[C@H]12` are 42 µM (≈ 40.2 µg/mL) and 80 µg/mL (≈ 83.6 µM).
The corresponding values for `C[C@H]1[C@H](C)CC[C@]2(C(=O)O[C@@H]3O[C@H](CO)[C@@H](O)[C@H](O)[C@H]3O)CC[C@]3(C(=O)O)C(=CC[C@@H]4[C@@]5(C)CC[C@H](O[C@@H]6O[C@H](C)[C@@H](O)[C@H](O)[C@H]6O)C(C)(C)[C@@H]5CC[C@]43C)[C@H]12` are 28 µM (≈ 22.3 µg/mL) and 80 µg/mL (≈ 101 µM).
On to `C[C@H]1[C@H](C)CC[C@]2(C(=O)O)CC[C@]3(C(=O)O[C@@H]4O[C@H](CO)[C@@H](O)[C@H](O)[C@H]4O)C(=CC[C@@H]4[C@@]5(C)CC[C@H](O[C@@H]6O[C@H](C)[C@H](O)[C@H](O[C@@H]7O[C@H](CO)[C@@H](O)[C@H](O)[C@H]7O)[C@H]6O)C(C)(C)[C@@H]5CC[C@]43C)[C@H]12`, for which the MIC50 in data set [1] turned out to be 63 µM (≈ 60.3 µg/mL). Further, the CC50 at 48 h in data set [2] amounted to 100 µg/mL (≈ 104 µM).
Consider `C[C@H]1[C@H](C)CC[C@]2(C(=O)O[C@@H]3O[C@H](CO)[C@@H](O)[C@H](O)[C@H]3O)CC[C@]3(C(=O)O)C(=CC[C@@H]4[C@@]5(C)CC[C@H](O[C@@H]6O[C@H](CO)[C@@H](O)[C@H](O)[C@H]6O)C(C)(C)[C@@H]5CC[C@]43C)[C@H]12`, for which the MIC50 in data set [1] is 40 µM (≈ 32.4 µg/mL). Also, in data set [2], the CC50 at 48 h worked out at 150 µg/mL (≈ 185 µM). Also, the MNTC at 48 h in data set [3] is 100 µg/mL. Also, the Activity in the data set on rhinovirus A1B [4] and in the data set with rhinovirus A1B [5] was 50% each time.
As for `C[C@H]1[C@H](C)CC[C@]2(C(=O)O[C@@H]3O[C@H](CO)[C@@H](O)[C@H](O)[C@H]3O)CC[C@]3(C(=O)O)C(=CC[C@@H]4[C@@]5(C)CC[C@H](O[C@@H]6O[C@H](C)[C@H](O)[C@H](O)[C@H]6O)C(C)(C)[C@@H]5CC[C@]43C)[C@H]12`, in data set [1], the MIC50 was determined as 40 µM (≈ 31.8 µg/mL). Further, the CC50 at 48 h in data set [2] is 80 µg/mL (≈ 101 µM).
The corresponding values for `C[C@H]1[C@H](C)CC[C@]2(C(=O)O)CC[C@]3(C(=O)O)C(=CC[C@@H]4[C@@]5(C)CC[C@H](O[C@@H]6O[C@H](CO)[C@@H](O)[C@H](O)[C@H]6O)C(C)(C)[C@@H]5CC[C@]43C)[C@H]12` are 51 µM (≈ 33.1 µg/mL) and 150 µg/mL (≈ 231 µM).
